#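 1) Cells in 96-well plates. 2) Compound, 48 h, 5 concentrations. 3) Linear interpolation between surrounding doses. 4) Unreached endpoint = highest concentration. Definition used: TGI = concentration required for complete inhibition of growth.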
# Key:
# Test in all cases: NCI tumour cell line growth inhibition, 48 h
# OVCAR-4 ovarian = system: OVCAR-4 ovarian
# SNB-75 CNS = system: SNB-75 CNS
# SF-295 CNS = system: SF-295 CNS
# UACC-62 melanoma = system: UACC-62 melanoma
# KM12 colon = system: KM12 colon
# HOP-92 NSCLC = system: HOP-92 NSCLC
# SN12C renal = system: SN12C renal
# MOLT-4 leukemia = system: MOLT-4 leukemia
# UACC-257 melanoma = system: UACC-257 melanoma
# SF-268 CNS = system: SF-268 CNS
# K-562 leukemia = system: K-562 leukemia
# IGROV1 ovarian = system: IGROV1 ovarian
# OVCAR-8 ovarian = system: OVCAR-8 ovarian
# UO-31 renal = system: UO-31 renal
# COLO 205 colon = system: COLO 205 colon
# SK-MEL-28 melanoma = system: SK-MEL-28 melanoma
# HCT-116 colon = system: HCT-116 colon
# BT-549 breast = system: BT-549 breast
# HT29 colon = system: HT29 colon
# SNB-19 CNS = system: SNB-19 CNS
SMILES,TGI (OVCAR-4 ovarian) [µM],TGI (SNB-75 CNS) [µM],TGI (SF-295 CNS) [µM],TGI (UACC-62 melanoma) [µM],TGI (KM12 colon) [µM],TGI (HOP-92 NSCLC) [µM],TGI (SN12C renal) [µM],TGI (MOLT-4 leukemia) [µM],TGI (UACC-257 melanoma) [µM],TGI (SF-268 CNS) [µM],TGI (K-562 leukemia) [µM],TGI (IGROV1 ovarian) [µM],TGI (OVCAR-8 ovarian) [µM],TGI (UO-31 renal) [µM],TGI (COLO 205 colon) [µM],TGI (SK-MEL-28 melanoma) [µM],TGI (HCT-116 colon) [µM],TGI (BT-549 breast) [µM],TGI (HT29 colon) [µM],TGI (SNB-19 CNS) [µM]
CC(=O)[C@]1(O)Cc2c(O)c3c(c(O)c2C(OC2OC(C)C(O)C(O)C2F)C1)C(=O)c1ccccc1C3=O (stereo partly specified),11.2,0.837,0.324,0.724,5.64,3.92,12.4,0.0577,2.38,2.28,1.25,24.9,16.1,0.0279,3.47,2.7,6.83,2.44,–,–
CC[C@]12C=CCN3CC[C@@]4(c5ccc(OC)cc5N(C)[C@H]4[C@@](O)(C(=O)OC)[C@@H]1OC(C)=O)[C@@H]32,> 63.2,> 200,> 200,> 200,> 200,132,> 200,> 176,> 200,> 200,> 200,> 200,> 11.2,> 92.8,> 200,> 200,> 200,–,> 200,> 200
COc1ccc2c(c1)CCCc1cn[nH]c1-2,> 100,> 100,> 100,> 100,> 100,> 100,> 100,> 100,> 100,> 100,> 100,> 100,> 100,> 100,> 100,> 100,> 100,–,> 100,> 100
O=C(NCCCNC(=O)c1ccc2cc(O)c(O)cc2c1)c1ccc2cc(O)c(O)cc2c1,45.4,> 100,–,42.7,> 100,48,–,> 100,> 100,> 100,> 100,> 100,> 100,> 100,> 100,> 100,> 100,> 100,81.2,56.5
COC(=O)C1(c2ccc(N(C)C)cc2OC)CCCN(C(=O)Oc2ccccc2[N+](=O)[O-])CCc2c1[nH]c1ccccc21 (stereo unspecified),–,> 100,> 100,> 100,> 100,> 100,> 100,> 100,> 100,> 100,> 100,> 100,> 100,> 100,> 100,> 100,> 100,> 100,> 100,–
CC(C(=O)O)c1cnn(-c2ccccc2)c1-n1cccc1 (stereo unspecified),> 100,> 100,> 100,> 100,> 100,> 100,> 100,> 100,> 100,> 100,> 100,> 100,> 100,> 100,> 100,> 100,> 100,–,> 100,> 100
C=CCNc1ccc(C)cc1,> 100,> 100,> 100,–,> 100,> 100,> 100,> 100,> 100,> 100,> 100,–,> 100,> 100,> 100,> 100,> 100,–,> 100,> 100
CCOCNC(=O)N(COCC)COCC,–,> 100,> 100,> 100,> 100,–,> 100,> 100,> 100,> 100,> 100,> 100,> 100,> 100,> 100,> 100,> 100,–,> 100,> 100
O=[N+]([O-])c1ccccc1N=Nc1c(O)sc2ccccc12,98.4,79.5,> 100,> 100,> 100,> 100,–,> 100,> 100,> 100,> 100,> 100,> 100,> 100,> 100,> 100,> 100,–,> 100,> 100
NCCc1nc(-c2nc(C(=O)O)cs2)cs1,> 100,> 100,> 100,> 100,> 100,> 100,> 100,> 100,> 100,> 100,> 100,> 100,> 100,> 100,> 100,> 100,> 100,> 100,> 100,> 100
COc1ccc(-c2c(C#N)c(NC(=S)NC(=O)c3ccccc3)nc3c2CCCC3)cc1OC,> 100,> 100,> 100,> 100,> 100,–,> 100,> 100,> 100,> 100,> 100,> 100,> 100,> 100,> 100,> 100,> 100,> 100,> 100,> 100
CN(CCCNc1ccc2ncn3c4ccccc4c(=O)c1c23)CCCN1C(=O)c2cccc3cc([N+](=O)[O-])cc(c23)C1=O,2.75,1.81,1.42,–,1.36,6.39,1.78,0.193,2.1,2.28,0.398,1.48,1.86,2.26,1.06,2.86,0.02,2.01,0.0155,2.28

# Reference: PubChem BioAssay (NCI)
